Among the data in BindingDB's records for patent US20240150287 (Hangzhou Apeloa Medicine Research Institute Co., 2024) are IC50 values, retold here.

Structures are written as SMILES. Where “and” joins values, the source holds several entries; their conditions need not be identical. Identical values can stand only once.

For the test, the target named is T1, Mucosal addressin cell adhesion molecule 1/Integrin alpha-4/beta-7 (Homo sapiens, UniProt P13612+P26010+Q13477).
T1 sequence (P13612 whole entry): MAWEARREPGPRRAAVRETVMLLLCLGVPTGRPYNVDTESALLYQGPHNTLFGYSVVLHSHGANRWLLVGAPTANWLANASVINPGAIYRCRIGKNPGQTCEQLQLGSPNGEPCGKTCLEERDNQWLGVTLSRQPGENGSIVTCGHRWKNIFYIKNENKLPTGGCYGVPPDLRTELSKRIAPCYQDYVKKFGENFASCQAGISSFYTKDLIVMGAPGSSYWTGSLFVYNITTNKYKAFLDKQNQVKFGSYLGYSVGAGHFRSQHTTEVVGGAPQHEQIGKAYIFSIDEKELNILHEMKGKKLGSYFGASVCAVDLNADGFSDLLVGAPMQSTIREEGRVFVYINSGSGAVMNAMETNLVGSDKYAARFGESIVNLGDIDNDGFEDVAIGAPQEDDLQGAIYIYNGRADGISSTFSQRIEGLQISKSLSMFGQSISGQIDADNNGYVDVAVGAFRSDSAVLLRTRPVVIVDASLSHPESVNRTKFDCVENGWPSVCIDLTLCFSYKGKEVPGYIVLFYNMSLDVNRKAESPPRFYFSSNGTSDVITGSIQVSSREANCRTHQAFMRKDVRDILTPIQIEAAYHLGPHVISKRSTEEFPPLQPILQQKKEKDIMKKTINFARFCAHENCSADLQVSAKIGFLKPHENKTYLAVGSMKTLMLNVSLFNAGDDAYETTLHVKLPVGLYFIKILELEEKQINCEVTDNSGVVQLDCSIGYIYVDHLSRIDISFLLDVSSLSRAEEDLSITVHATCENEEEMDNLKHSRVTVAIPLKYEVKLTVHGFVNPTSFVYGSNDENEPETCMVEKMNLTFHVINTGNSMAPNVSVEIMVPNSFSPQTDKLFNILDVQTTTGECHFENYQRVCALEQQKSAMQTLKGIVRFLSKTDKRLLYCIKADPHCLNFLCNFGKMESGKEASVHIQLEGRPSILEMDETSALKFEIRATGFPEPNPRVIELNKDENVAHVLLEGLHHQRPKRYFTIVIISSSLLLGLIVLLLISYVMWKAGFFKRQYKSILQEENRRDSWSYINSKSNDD
T1 sequence (P26010 whole entry): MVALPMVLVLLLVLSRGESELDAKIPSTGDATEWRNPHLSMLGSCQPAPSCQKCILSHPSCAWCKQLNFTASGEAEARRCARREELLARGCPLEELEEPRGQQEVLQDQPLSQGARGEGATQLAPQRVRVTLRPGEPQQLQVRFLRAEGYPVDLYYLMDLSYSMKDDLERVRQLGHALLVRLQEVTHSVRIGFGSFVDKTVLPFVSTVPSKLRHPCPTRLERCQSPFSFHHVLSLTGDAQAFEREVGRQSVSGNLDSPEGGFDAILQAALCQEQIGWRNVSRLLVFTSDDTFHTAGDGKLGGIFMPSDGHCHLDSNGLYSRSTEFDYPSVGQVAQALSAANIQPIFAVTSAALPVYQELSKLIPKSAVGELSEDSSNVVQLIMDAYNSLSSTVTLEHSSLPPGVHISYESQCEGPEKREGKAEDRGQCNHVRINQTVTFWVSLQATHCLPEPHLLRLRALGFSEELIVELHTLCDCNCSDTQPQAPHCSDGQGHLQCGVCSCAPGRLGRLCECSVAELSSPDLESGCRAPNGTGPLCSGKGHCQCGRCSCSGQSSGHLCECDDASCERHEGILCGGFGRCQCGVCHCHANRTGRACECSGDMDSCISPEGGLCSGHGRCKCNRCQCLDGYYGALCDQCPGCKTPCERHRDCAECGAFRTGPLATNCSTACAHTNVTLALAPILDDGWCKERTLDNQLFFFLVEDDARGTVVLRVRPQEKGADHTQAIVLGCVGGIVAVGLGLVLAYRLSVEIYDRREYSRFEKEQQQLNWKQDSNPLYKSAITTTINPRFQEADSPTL
T1 sequence (Q13477 whole entry): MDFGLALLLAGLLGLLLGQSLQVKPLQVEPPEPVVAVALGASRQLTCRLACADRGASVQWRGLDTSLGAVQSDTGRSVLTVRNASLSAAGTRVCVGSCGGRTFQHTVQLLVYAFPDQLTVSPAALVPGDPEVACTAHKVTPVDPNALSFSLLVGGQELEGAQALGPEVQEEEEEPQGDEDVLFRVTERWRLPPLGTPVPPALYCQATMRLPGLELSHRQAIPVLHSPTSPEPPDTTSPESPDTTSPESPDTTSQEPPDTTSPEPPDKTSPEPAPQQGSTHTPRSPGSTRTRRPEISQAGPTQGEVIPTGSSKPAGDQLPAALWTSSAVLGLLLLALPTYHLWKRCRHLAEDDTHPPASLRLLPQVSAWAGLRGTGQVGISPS
The test can be described thus: BINDING INHIBITION ACTIVITY EVALUATION TEST. On the procedure:
Coat the 96-well microplate (Costar) with 50 μL of recombinant human MAdCAM-1 (R&D Systems) solution per well, and incubate overnight (12-18 hours) at 4° C. Wash three times with 150 μL of TBS buffer per well. Block plate with 150 μL per well with blocking buffer for 1 h at 37° C. Wash three times with 150 μL of TBS buffer per well. Dilute the recombinant human integrin α4β7 (R&D Systems) with TBS buffer containing 0.1% bovine serum albumin (BSA), then add to the 96 well plate with 50 μL per well. Add 1 μL of test compound or DMSO, cover, incubate at room temperature for 2 h, wash three times with 150 μL of TBS buffer per well. Dilute the anti-β7 antibody (R&D Systems) with 0.1% BSA TBS buffer, then add to the 96 well plate with 50 μL per well, cover, incubate at room temperature for 1 h, wash three times with 150 μL of TBS buffer per well. Add 50 μL of streptavidin-HRP (R&D Systems) per well, incubate at room temperature for 20 min, wash three times with 150 μL of TBS buffer per well. Add 50 μL of TMB substrate solution (Sigma) per well, incubate at room temperature for 5-30 min, and add 25 μL of stop solution per well to stop the reaction. Finally, measure absorbance at 450 nm with microplate reader (SpectraMax 340PC. Molecular Devices). Repeat the test to find the binding rate […] at each concentration when the absorbance of the well without the test substance is used as 100%, and calculate the concentration IC50 that causes 50% binding inhibition.
Consider `COC(=O)[C@H](Cc1ccc(N2C(=O)C3(CC3)c3cc(F)c(F)cc32)cc1)NC(c1ccccc1)(c1ccccc1)c1ccccc1` [US20240150287, Example 1], for which the concentration for half-maximal inhibition (IC50) (usually the midpoint of a concentration-inhibition curve) is 14.3 nM.

Regarding `COC(=O)[C@H](Cc1ccc(N2C(=O)C3(CC3)c3cccc(Cl)c32)cc1)NC(c1ccccc1)(c1ccccc1)c1ccccc1` [US20240150287, Example 2], the half-inhibitory concentration (IC50) stood at 2.57 nM. As for `COC(=O)[C@H](Cc1ccc(N2C(=O)C3(CC3)c3cccc(OC)c32)cc1)NC(c1ccccc1)(c1ccccc1)c1ccccc1` [US20240150287, Example 3], the figure is 5.48 nM; as for `COC(=O)[C@H](Cc1ccc(N2C(=O)C3(CC3)c3ccc(F)cc32)cc1)NC(c1ccccc1)(c1ccccc1)c1ccccc1` [US20240150287, Example 4], 2.54 nM and 8.02 nM. For the compound `COC(=O)[C@H](Cc1ccc(N2C(=O)C3(CC3)c3cccc(F)c32)cc1)NC(c1ccccc1)(c1ccccc1)c1ccccc1` [US20240150287, Example 5], the IC50 was 6.21 nM. As for `COC(=O)[C@H](Cc1ccc(N2C(=O)C3(CC3)c3ccccc32)cc1)NC(c1ccccc1)(c1ccccc1)c1ccccc1` [US20240150287, Example 6], the figure is 5.81 nM; as for `COC(=O)[C@H](Cc1ccc(N2C(=O)C3(CCOCC3)c3cccc(Cl)c32)cc1)NC(c1ccccc1)(c1ccccc1)c1ccccc1` [US20240150287, Example 7], 16.1 nM; as for `COC(=O)[C@H](Cc1ccc(N2C(=O)C3(CC3)c3cc(F)c(Cl)cc32)cc1)NC(c1ccccc1)(c1ccccc1)c1ccccc1` [US20240150287, Example 8], 17.6 nM. As for `COC(=O)[C@H](Cc1ccc(N2C(=O)C3(CC3)c3cc(F)ccc32)cc1)NC(c1ccccc1)(c1ccccc1)c1ccccc1` [US20240150287, Example 9], the figure is 95.5 nM; as for `COC(=O)[C@H](Cc1ccc(N2C(=O)C(C)(C)c3cccc(Cl)c32)cc1)NC(c1ccccc1)(c1ccccc1)c1ccccc1` [US20240150287, Example 10], 38.8 nM; as for `COC(=O)[C@H](Cc1ccc(N2C(=O)C3(CC3)c3cc(F)c(N(C)C)cc32)cc1)NC(c1ccccc1)(c1ccccc1)c1ccccc1` [US20240150287, Example 11], 3.05 nM.

Consider `COC(=O)[C@H](Cc1ccc(N2C(=O)C3(CC3)c3cc(N(C)C)ccc32)cc1)NC(c1ccccc1)(c1ccccc1)c1ccccc1` [US20240150287, Example 12], for which the IC50 amounted to 4.15 nM. Compound `COC(=O)[C@H](Cc1ccc(N2C(=O)C3(CC3)c3ccc(F)c(F)c32)cc1)NC(c1ccccc1)(c1ccccc1)c1ccccc1` [US20240150287, Example 15] displayed an IC50 of 5.62 nM. As for `COC(=O)[C@H](Cc1ccc(N2C(=O)C3(CC3)c3cccnc32)cc1)NC(c1ccccc1)(c1ccccc1)c1ccccc1` [US20240150287, Example 16], the figure is 0.75 nM; as for `COC(=O)[C@H](Cc1ccc(N2C(=O)C3(CC3)c3cccc(Cl)c32)cc1)NC(=O)c1c(Cl)cc(Cl)cc1Cl` [US20240150287, Example 17], 64.2 nM; as for `COC(=O)[C@H](Cc1ccc(N2C(=O)C3(CC3)c3cccc(Cl)c32)cc1)NC(=O)c1c(Cl)cc(N2CCOCC2)cc1Cl` [US20240150287, Example 19], 11.4 nM. In turn, `COC(=O)[C@H](Cc1ccc(N2C(=O)C3(CC3)c3cccc(Cl)c32)cc1)NC(=O)c1c(Cl)cc(N2CC3CC2CO3)cc1Cl` (some centres undefined) [US20240150287, Example 20] had an IC50 of 4.15 nM. `COC(=O)[C@H](Cc1ccc(N2C(=O)C3(CC3)c3cccc(Cl)c32)cc1)NC(=O)c1c(Cl)cc(N2CCC(N3CCOCC3)CC2)cc1Cl` [US20240150287, Example 21] showed an IC50 of 23.8 nM.

Take `COC(=O)[C@H](Cc1ccc(-n2c(=O)n(C)c3cccc(Cl)c32)cc1)NC(c1ccccc1)(c1ccccc1)c1ccccc1` [US20240150287, Example 22]: the IC50 worked out at 1.19 nM. As for `COC(=O)[C@H](Cc1ccc(-n2c(=O)n(C3CC3)c3cc(Cl)ccc32)cc1)NC(c1ccccc1)(c1ccccc1)c1ccccc1` [US20240150287, Example 23], the figure is 143 nM; as for `COC(=O)[C@H](Cc1ccc(-n2c(=O)n(C3CC3)c3ccc(Cl)cc32)cc1)NC(c1ccccc1)(c1ccccc1)c1ccccc1` [US20240150287, Example 24], 5.67 nM; as for `COC(=O)[C@H](Cc1ccc(-n2c(=O)n(C3CC3)c3cccc(Cl)c32)cc1)NC(c1ccccc1)(c1ccccc1)c1ccccc1` [US20240150287, Example 25], 7.5 nM. As for `COC(=O)[C@H](Cc1ccc(-n2c(=S)n(C)c3cccc(Cl)c32)cc1)NC(c1ccccc1)(c1ccccc1)c1ccccc1` [US20240150287, Example 26], the figure is 160 nM; as for `COC(=O)[C@H](Cc1ccc(-n2c(=O)n(C3CC3)c3cccc(F)c32)cc1)NC(c1ccccc1)(c1ccccc1)c1ccccc1` [US20240150287, Example 27], 8.81 nM.

Compound `COC(=O)[C@H](Cc1ccc(-n2c(=O)n(C3CCN(C)CC3)c3cccc(Cl)c32)cc1)NC(c1ccccc1)(c1ccccc1)c1ccccc1` [US20240150287, Example 29] displayed an IC50 of 18.1 nM.

Turning to `COC(=O)[C@H](Cc1ccc(-n2c(=O)n(C)c3cccc(F)c32)cc1)NC(c1ccccc1)(c1ccccc1)c1ccccc1` [US20240150287, Example 30], the IC50 stood at 1.83 nM. As for `COC(=O)[C@H](Cc1ccc(-n2c(=O)n(C)c3cc(F)cc(F)c32)cc1)NC(c1ccccc1)(c1ccccc1)c1ccccc1` [US20240150287, Example 31], the figure is 5.34 nM; as for `COC(=O)[C@H](Cc1ccc(-n2c(=O)n(C)c3cc(Cl)c(Cl)cc32)cc1)NC(c1ccccc1)(c1ccccc1)c1ccccc1` [US20240150287, Example 32], 4.19 nM. Compound `COC(=O)[C@H](Cc1ccc(-n2c(=O)n(C)c3ccc(F)c(F)c32)cc1)NC(c1ccccc1)(c1ccccc1)c1ccccc1` [US20240150287, Example 33] displayed an IC50 of 2.7 nM.
